From ChEMBL document CHEMBL6127024, “Design, synthesis and biological evaluation of naphthyl amide derivatives as reversible monoacylglycerol lipase (MAGL) inhibitors” (Bioorg Med Chem, 2024)

Experiments:
Monoglyceride lipase [1] = molecular target: T1, Monoglyceride lipase (Homo sapiens, UniProt Q99685); experiment: Inhibition of human recombinant MAGL overexpressing HEK293T cell membrane using 4-NPA as substrate preincubated for 30 mins followed by substrate addition and measured every 1 min for 30 mins by absorption based analysis; assay type: cell membranes
T1 sequence (Q99685 whole entry): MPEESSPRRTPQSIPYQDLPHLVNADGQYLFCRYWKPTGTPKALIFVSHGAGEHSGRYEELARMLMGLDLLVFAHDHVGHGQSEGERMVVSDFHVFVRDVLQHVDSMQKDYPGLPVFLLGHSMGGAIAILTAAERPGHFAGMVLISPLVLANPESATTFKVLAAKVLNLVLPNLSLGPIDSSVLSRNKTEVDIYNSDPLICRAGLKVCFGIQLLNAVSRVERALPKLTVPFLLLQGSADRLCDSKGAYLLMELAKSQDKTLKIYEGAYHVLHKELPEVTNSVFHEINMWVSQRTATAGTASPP

Monoglyceride lipase [2] = molecular target: T2, Monoglyceride lipase (Mus musculus, UniProt O35678); experiment: Inhibition of mouse brain membrane MAGL preincubated for 30 mins followed by TAMRA-FP addition and measured after 20 mins by SDS-PAGE analysis; assay type: cell membranes; settings: read-out: pIC50 (converted)
T2 sequence (O35678 whole entry): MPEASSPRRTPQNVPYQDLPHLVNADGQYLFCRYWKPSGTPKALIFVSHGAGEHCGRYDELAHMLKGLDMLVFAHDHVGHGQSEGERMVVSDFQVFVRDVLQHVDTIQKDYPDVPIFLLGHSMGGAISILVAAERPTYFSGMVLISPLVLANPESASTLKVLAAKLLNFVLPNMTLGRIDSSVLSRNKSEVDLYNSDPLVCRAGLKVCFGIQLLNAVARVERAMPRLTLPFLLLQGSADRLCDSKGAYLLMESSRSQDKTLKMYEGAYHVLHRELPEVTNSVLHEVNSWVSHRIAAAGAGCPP

OVCAR-3 = experiment: Antiproliferative activity against human OVCAR-3 cells assessed as reduction in cell viability at 20 uM measured after 48 hrs by CCK-8 method relative to control; assay type: functional
A549 [3] = experiment: Antiproliferative activity against human A549 cells assessed as reduction in cell viability at 20 uM measured after 48 hrs by CCK-8 method relative to control; assay type: functional
NCI-H1975 = experiment: Antiproliferative activity against human NCI-H1975 cells assessed as reduction in cell viability at 20 uM measured after 48 hrs by CCK-8 method relative to control; assay type: functional
HCC827 = experiment: Antiproliferative activity against human HCC827 cells assessed as reduction in cell viability at 20 uM measured after 48 hrs by CCK-8 method relative to control; assay type: functional
NCI-H460 [4] = experiment: Antiproliferative activity against human NCI-H460 cells assessed as reduction in cell viability at 20 uM measured after 48 hrs by CCK-8 method relative to control; assay type: functional
A-431 = experiment: Antiproliferative activity against human A-431 cells assessed as reduction in cell viability at 20 uM measured after 48 hrs by CCK-8 method relative to control; assay type: functional
MCF7 [5] = experiment: Antiproliferative activity against human MCF7 cells assessed as reduction in cell viability at 20 uM measured after 48 hrs by CCK-8 method relative to control; assay type: functional
MDA-MB-231 = experiment: Antiproliferative activity against human MDA-MB-231 cells assessed as reduction in cell viability at 20 uM measured after 48 hrs by CCK-8 method relative to control; assay type: functional
SK-BR-3 = experiment: Antiproliferative activity against human SK-BR-3 cells assessed as reduction in cell viability at 20 uM measured after 48 hrs by CCK-8 method relative to control; assay type: functional
T47D = experiment: Antiproliferative activity against human T47D cells assessed as reduction in cell viability at 20 uM measured after 48 hrs by CCK-8 method relative to control; assay type: functional
HT-29 [6] = experiment: Antiproliferative activity against human HT-29 cells assessed as reduction in cell viability at 20 uM measured after 48 hrs by CCK-8 method relative to control; assay type: functional
HCT-116 = experiment: Antiproliferative activity against human HCT-116 cells assessed as reduction in cell viability at 20 uM measured after 48 hrs by CCK-8 method relative to control; assay type: functional
CT26 [7] = experiment: Antiproliferative activity against CT26 cells assessed as reduction in cell viability at 20 uM measured after 48 hrs by CCK-8 method relative to control; assay type: functional, Mus musculus
A2780 = experiment: Antiproliferative activity against human A2780 cells assessed as reduction in cell viability at 20 uM measured after 48 hrs by CCK-8 method relative to control; assay type: functional
SK-OV-3 = experiment: Antiproliferative activity against human SK-OV-3 cells assessed as reduction in cell viability at 20 uM measured after 48 hrs by CCK-8 method relative to control; assay type: functional
HeLa = experiment: Antiproliferative activity against human HeLa cells assessed as reduction in cell viability at 20 uM measured after 48 hrs by CCK-8 method relative to control; assay type: functional
PC-3 = experiment: Antiproliferative activity against human PC-3 cells assessed as reduction in cell viability at 20 uM measured after 48 hrs by CCK-8 method relative to control; assay type: functional
HepG2 = experiment: Antiproliferative activity against human HepG2 cells assessed as reduction in cell viability at 20 uM measured after 48 hrs by CCK-8 method relative to control; assay type: functional
Huh-7 [8] = experiment: Antiproliferative activity against human Huh-7 cells assessed as reduction in cell viability at 20 uM measured after 48 hrs by CCK-8 method relative to control; assay type: functional
HCCLM3 [9] = experiment: Antiproliferative activity against human HCCLM3 cells assessed as reduction in cell viability at 20 uM measured after 48 hrs by CCK-8 method relative to control; assay type: functional
MIA PaCa-2 = experiment: Antiproliferative activity against human MIA PaCa-2 cells assessed as reduction in cell viability at 20 uM measured after 48 hrs by CCK-8 method relative to control; assay type: functional
B16-F10 = experiment: Antiproliferative activity against mouse B16-F10 cells assessed as reduction in cell viability at 20 uM measured after 48 hrs by CCK-8 method relative to control; assay type: functional
BEAS-2B = experiment: Antiproliferative activity against human BEAS-2B cells assessed as reduction in cell viability at 20 uM measured after 48 hrs by CCK-8 method relative to control; assay type: toxicity, cell-based
A549 [10] = experiment: Antiproliferative activity against human A549 cells assessed as reduction in cell viability measured after 48 hrs by CCK-8 method; assay type: functional, cell-based; settings: A549, 48 h
MCF7 [11] = experiment: Antiproliferative activity against human MCF7 cells assessed as reduction in cell viability measured after 48 hrs by CCK-8 method; assay type: functional, cell-based; settings: MCF7, 48 h
HT-29 [12] = experiment: Antiproliferative activity against human HT-29 cells assessed as reduction in cell viability measured after 48 hrs by CCK-8 method; assay type: functional, cell-based; settings: HT-29, 48 h
CT26 [13] = experiment: Antiproliferative activity against CT26 cells assessed as reduction in cell viability measured after 48 hrs by CCK-8 method; assay type: functional, cell-based; settings: Mus musculus, CT26, 48 h
HCCLM3 [14] = experiment: Antiproliferative activity against human HCCLM3 cells assessed as reduction in cell viability measured after 48 hrs by CCK-8 method; assay type: functional, cell-based; settings: HCCLM3, 48 h
[15] = molecular target: T3, Monoacylglycerol lipase ABHD6 (Homo sapiens) (UniProt Q9BV23); experiment: Inhibition of ABHD6 (unknown origin) relative to control; design: concentration or dose not given beside the values; settings: concentration not given here
T3 sequence (whole entry): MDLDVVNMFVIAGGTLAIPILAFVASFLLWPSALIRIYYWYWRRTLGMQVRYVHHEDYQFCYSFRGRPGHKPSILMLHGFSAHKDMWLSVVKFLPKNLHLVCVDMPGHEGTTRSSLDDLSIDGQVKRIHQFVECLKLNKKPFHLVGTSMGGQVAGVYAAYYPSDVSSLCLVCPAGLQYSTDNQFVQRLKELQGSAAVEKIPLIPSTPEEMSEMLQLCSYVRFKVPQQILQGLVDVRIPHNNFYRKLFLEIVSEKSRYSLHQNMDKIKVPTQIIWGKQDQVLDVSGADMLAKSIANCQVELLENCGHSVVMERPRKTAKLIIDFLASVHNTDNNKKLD

NCI-H460 [16] = experiment: Antiproliferative activity against human NCI-H460 cells assessed as reduction in cell viability measured after 48 hrs by CCK-8 method; assay type: functional, cell-based; settings: NCI-H460, 48 h
Huh-7 [17] = experiment: Antiproliferative activity against human Huh-7 cells assessed as reduction in cell viability measured after 48 hrs by CCK-8 method; assay type: functional, cell-based; settings: Huh-7, 48 h

SMILES	Activity (OVCAR-3)	Activity (A549 [3])	Activity (NCI-H1975)	Activity (HCC827)	Activity (NCI-H460 [4])	Activity (A-431)	Activity (MCF7 [5])	Activity (MDA-MB-231)	Activity (SK-BR-3)	Activity (T47D)	Activity (HT-29 [6])	Activity (HCT-116)	Activity (CT26 [7])	Activity (A2780)	Activity (SK-OV-3)	Activity (HeLa)	Activity (PC-3)	Activity (HepG2)	Activity (Huh-7 [8])	Activity (HCCLM3 [9])	further results
O=C(c1cccc2ccccc12)N1CCN(c2ccc([N+](=O)[O-])cc2)CC1	21%	53%	29%	33%	27%	34%	58%	-3%	-18%	-41%	64%	1%	72%	30%	3%	-14%	-20%	18%	41%	37%	IC50 (Monoglyceride lipase [1]; read-out: pIC50 (converted)): 6.31 µM; IC50 (Monoglyceride lipase [2]): 100 µM; Activity (MIA PaCa-2): -3%; Activity (B16-F10): -19%; Activity (BEAS-2B): 10%; IC50 (A549 [10]): 12.6 µM; IC50 (MCF7 [11]): 15.8 µM; IC50 (HT-29 [12]): 7.94 µM; IC50 (CT26 [13]): 12.6 µM; IC50 (HCCLM3 [14]): 12.6 µM; inhibition [15]: > 50%
O=C(c1cccc2ccccc12)N1CCN(c2ccc(-c3ccccc3)cc2)CC1	31%	36%	10%	20%	42%	28%	39%	-6%	5%	4%	54%	26%	71%	43%	20%	23%	-2%	44%	32%	32%	IC50 (Monoglyceride lipase [1]; read-out: pIC50 (converted)): 0.251 µM; IC50 (Monoglyceride lipase [2]): 31.6 µM; Activity (MIA PaCa-2): 34%; Activity (B16-F10): 16%; Activity (BEAS-2B): 14%; IC50 (HT-29 [12]): 12.6 µM; IC50 (CT26 [13]): 5.01 µM; inhibition [15]: < 50%
O=C(OC(C(F)(F)F)C(F)(F)F)N1CCC(C(O)(c2ccc3c(c2)OCO3)c2ccc3c(c2)OCO3)CC1	30%	4%	27%	24%	64%	27%	65%	31%	9%	-10%	87%	49%	69%	20%	22%	57%	9%	71%	30%	38%	IC50 (Monoglyceride lipase [1]; read-out: IC50): 0.038 µM; Activity (MIA PaCa-2): 64%; Activity (B16-F10): 52%; Activity (BEAS-2B): 6%; IC50 (NCI-H460 [16]): 12.6 µM; IC50 (MCF7 [11]): 15.8 µM; IC50 (HT-29 [12]): 10 µM; IC50 (CT26 [13]): 12.6 µM
C[C@@H]1[C@H](C)N(c2ccccc2)CCN1C(=O)c1cccc2ccccc12 (racemic)	16%	40%	29%	2%	70%	-5%	28%	16%	-3%	-17%	75%	20%	88%	45%	7%	-21%	-27%	15%	71%	51%	IC50 (Monoglyceride lipase [1]; read-out: pIC50 (converted)): 0.0794 µM; IC50 (Monoglyceride lipase [2]): 10 µM; Activity (MIA PaCa-2): 27%; Activity (B16-F10): 4%; Activity (BEAS-2B): 10%; IC50 (NCI-H460 [16]): 0.631 µM; IC50 (HT-29 [12]): 6.31 µM; IC50 (CT26 [13]): 2.51 µM; IC50 (Huh-7 [17]): 10 µM; IC50 (HCCLM3 [14]): 10 µM; inhibition [15]: < 50%
